Experimental data taken from patent publication US11684621B2, “Combination containing sGC stimulators and mineralocorticoid receptor antagonists” (Bayer Pharma Aktiengesellschaft, priority 2016, dated 2023).

Test system: L-NAME-treated renin transgenic rats (TGR(mRen2)27)
Assay: L-NAME-treated transgenic renin rat (TGR(mRen2)27): mortality and proteinuria
Type: in vivo
Settings: finerenone 10 mg/kg od, compound of the formula (X) 0.3 mg/kg od, alone or combined; for All-cause mortality during the study period / Survival rate over the study period: L-NAME-treated TGR(mRen2)27 renin rats, daily gavage; for All-cause mortality during the study period: 15 animals per group, placebo mortality 40%; for Survival rate over the study period: study terminated after 40% of placebo animals had died; for Reduction of proteinuria, measured as protein/creatinine quotient in urine / Protein/creatine quotient - % of group A (proteinuria in % reduction from placebo): L-NAME-treated renin transgenic rats; for Reduction of proteinuria, measured as protein/creatinine quotient in urine: versus placebo; for Protein/creatine quotient - % of group A (proteinuria in % reduction from placebo): urine, end of the study, mean ± SEM, relative to placebo group A
From the text: 3.) L-NAME-treated transgenic renin rat (TGR(mRen2)27)
The transgenic renin rat ‘TGR(mRen2)27’ is a hypertensive rat line developed by Mullins and Ganten which overexpresses the Ren-2 gene of the mouse. Additional administration of the nitrogen monoxide synthase inhibitor L-NAME induces endothelial dysfunction which increases morbidity and mortality in this model. Unless subjected to life-long antihypertensive therapy, homozygous animals die of secondary complications such as heart and kidney failure or stroke.
Male TGR(mRen2)27 renin rats aged 10 to 20 weeks are randomized to different pharmacological treatment groups and a placebo group. In addition, the nitrogen monoxide synthase inhibitor L-NAME is administered via the drinking water in a concentration of 30 to 100 mg/l. During the entire experiment, drinking water and feed are available ad libitum to the animals. The substances are administered via the feed or daily by gavage for 4-10 weeks. Animals treated in the same way but receiving either only the solvent or the feed without test substance serve as placebo group. During the experiment, the systolic blood pressure is determined at regular intervals using a tail cuff, and proteinuria and urine electrolyte composition are determined by collecting the urine in metabolic cages. At the end of the experiment, haemodynamic parameters (blood pressure, heart rate, inotropism [dp/dt], relaxation time [tau], maximum left ventricular pressure, left ventricular end-diastolic pressure [LVEDP]) are measured, and the weights of heart, kidney and lung are determined, protein elimination and biomarkers (e.g. ANP, RIA Kit RK 005-24, Phoenix Pharmaceuticals, Inc., USA, cGMP, RIA Kit RE29075, IBL International GmbH, Hamburg, Germany, renin, angiotensin I, RIA Kit CA-1533, DiaSorin S.p.A., Italy, and aldosterone, P2714, DiaSorin S.p.A., Italy) and gene expression of biomarkers by RT/TaqMan PCR following RNA isolation from cardiac and renal tissue are determined.
Cardiac and cardiovascular disorders as well as renal and cardiorenal disorders are characterized by high patient morbidity and also high mortality. This morbidity and mortality, together with various risk factors such as hypertension, can be reproduced very accurately in the above-described animal model of the L-NAME-treated renin transgenic rat. Therefore, this animal model, for example, was used to investigate MR antagonists such as, for example, finerenone according to the compound of the formula (IV) and sGC stimulators such as, for example, the compound of the formula (X), and combinations of both: […]
For example, the MR antagonist finerenone, corresponding to the compound of the formula (IV), and the sGC stimulator, corresponding to the compound of the formula (X), were tested on their own and in combinations in TGR(mRen2)27 renin rats aged 10 to 20 weeks. In addition, the nitrogen monoxide synthase inhibitor L-NAME was administered via the drinking water in a concentration of 30 to 100 mg/l. During the entire experiment, drinking water and feed were available ad libitum to the animals. The substances were administered daily by gavage for 4-10 weeks. Animals treated in the same way but receiving only the solvent for the test substance served as placebo group. In the test series, in addition to placebo (group A), the MR antagonist finerenone corresponding to the compound of the formula (IV) (10 mg/kg od) (group B) and the sGC stimulator corresponding to the compound of the formula (X) (0.3 mg/kg od) (group C) on their own and a combination of finerenone corresponding to the compound of the formula (IV) (10 mg/kg od)+compound of the formula (X) (0.3 mg/kg od) (group D) were administered. In this study, 15 animals were used per group (A, B, C, D) (Table 1): […]

Compound	All-cause mortality during the study period [%]	Survival rate over the study period [%]	Reduction of proteinuria, measured as protein/creatinine quotient in urine [%]	Protein/creatine quotient - % of group A (proteinuria in % reduction from placebo)
COC(=O)Nc1c(N)nc(-c2nn(Cc3ccccc3F)c3ncc(F)cc23)nc1N [compound of the formula (X), methyl {4,6-diamino-2-[5-fluoro-1-(2-fluorobenzyl)-1H-pyrazolo[3,4-b]pyridin-3-yl]pyrimidin-5-yl}carbamate]	13	87	51	−51 + 20%
CCOc1ncc(C)c2c1[C@H](c1ccc(C#N)cc1OC)C(C(N)=O)=C(C)N2 [finerenone, (S)-4-(4-cyano-2-methoxyphenyl)-5-ethoxy-2,8-dimethyl-1,4-dihydro-1,6-naphthyridine-3-carboxamide]	20	80	58	−58 + 16%
